How the values were obtained:
[1] = system: Tyrosine-protein kinase ABL1 (Homo sapiens), P00519 [Q252H]; settings: Compound concentration 1000.0 nM
[2] = system: Tyrosine-protein kinase ABL1 (Homo sapiens), P00519 [Y253F]; settings: Compound concentration 1000.0 nM
[3] = target: ALK tyrosine kinase receptor (Homo sapiens) (UniProt Q9UM73); settings: Compound concentration 1000.0 nM
[4] = target: Serine/threonine-protein kinase BRSK1 (Homo sapiens) (UniProt Q8TDC3); settings: Compound concentration 1000.0 nM
[5] = target: Tyrosine-protein kinase BTK (Homo sapiens) (UniProt Q06187); settings: Compound concentration 1000.0 nM
[6] = target: Cyclin-dependent kinase 13 (Homo sapiens) (UniProt Q14004); settings: Compound concentration 1000.0 nM
[7] = target: Cyclin-dependent kinase 4 (Homo sapiens) (UniProt P11802); settings: Compound concentration 1000.0 nM
[8] = target: Cyclin-dependent kinase 5 (Homo sapiens) (UniProt Q00535); settings: Compound concentration 1000.0 nM
[9] = target: Dual specificity protein kinase CLK1 (Homo sapiens) (UniProt P49759); settings: Compound concentration 1000.0 nM
[10] = target: Casein kinase I isoform gamma-2 (Homo sapiens) (UniProt P78368); settings: Compound concentration 1000.0 nM
[11] = target: Dual specificity tyrosine-phosphorylation-regulated kinase 1A (Homo sapiens) (UniProt Q13627); settings: Compound concentration 1000.0 nM
[12] = system: Epidermal growth factor receptor (Homo sapiens), P00533 [G719S]; settings: Compound concentration 1000.0 nM
[13] = system: Epidermal growth factor receptor (Homo sapiens), P00533 [UNDEFINED MUTATION]; settings: Compound concentration 1000.0 nM
[14] = system: Epidermal growth factor receptor (Homo sapiens), P00533 [T790M]; settings: Compound concentration 1000.0 nM
[15] = target: Ephrin type-A receptor 2 (Homo sapiens) (UniProt P29317); settings: Compound concentration 1000.0 nM
[16] = target: Ephrin type-A receptor 5 (Homo sapiens) (UniProt P54756); settings: Compound concentration 1000.0 nM
[17] = target: Ephrin type-A receptor 6 (Homo sapiens) (UniProt Q9UF33); settings: Compound concentration 1000.0 nM
[18] = target: Receptor tyrosine-protein kinase erbB-3 (Homo sapiens) (UniProt P21860); settings: Compound concentration 1000.0 nM
[19] = target: Vascular endothelial growth factor receptor 1 (Homo sapiens) (UniProt P17948); settings: Compound concentration 1000.0 nM
[20] = target: Glycogen synthase kinase-3 alpha (Homo sapiens) (UniProt P49840); settings: Compound concentration 1000.0 nM
[21] = target: Homeodomain-interacting protein kinase 2 (Homo sapiens) (UniProt Q9H2X6); settings: Compound concentration 1000.0 nM
[22] = target: Inhibitor of nuclear factor kappa-B kinase subunit epsilon (Homo sapiens) (UniProt Q14164); settings: Compound concentration 1000.0 nM
[23] = target: Tyrosine-protein kinase JAK1 (Homo sapiens) (UniProt P23458); settings: Compound concentration 1000.0 nM
[24] = target: Tyrosine-protein kinase JAK2 (Homo sapiens) (UniProt O60674); settings: Compound concentration 1000.0 nM
[25] = system: Mast/stem cell growth factor receptor Kit (Homo sapiens), P10721 [L576P]; settings: Compound concentration 1000.0 nM
[26] = target: Leukocyte tyrosine kinase receptor (Homo sapiens) (UniProt P29376); settings: Compound concentration 1000.0 nM
[27] = target: Mitogen-activated protein kinase kinase kinase 1 (Homo sapiens) (UniProt Q13233); settings: Compound concentration 1000.0 nM
[28] = target: Hepatocyte growth factor receptor (Homo sapiens) (UniProt P08581); settings: Compound concentration 1000.0 nM
[29] = target: Serine/threonine-protein kinase Nek4 (Homo sapiens) (UniProt P51957); settings: Compound concentration 1000.0 nM
[30] = target: Serine/threonine-protein kinase NLK (Homo sapiens) (UniProt Q9UBE8); settings: Compound concentration 1000.0 nM
[31] = target: Serine/threonine-protein kinase PAK 3 (Homo sapiens) (UniProt O75914); settings: Compound concentration 1000.0 nM
[32] = target: Serine/threonine-protein kinase PAK 6 (Homo sapiens) (UniProt Q9NQU5); settings: Compound concentration 1000.0 nM
[33] = system: Phosphatidylinositol 4,5-bisphosphate 3-kinase catalytic subunit alpha isoform (Homo sapiens), P42336 [I800L]; settings: Compound concentration 1000.0 nM
[34] = target: cGMP-dependent protein kinase 1 (Homo sapiens) (UniProt Q13976); settings: Compound concentration 1000.0 nM
[35] = target: Receptor-interacting serine/threonine-protein kinase 1 (Homo sapiens) (UniProt Q13546); settings: Compound concentration 1000.0 nM
[36] = target: Rho-associated protein kinase 2 (Homo sapiens) (UniProt O75116); settings: Compound concentration 1000.0 nM
[37] = target: Ribosomal protein S6 kinase alpha-5 (Homo sapiens) (UniProt O75582); settings: Compound concentration 1000.0 nM
[38] = target: Ribosomal protein S6 kinase alpha-3 (Homo sapiens) (UniProt P51812); settings: Compound concentration 1000.0 nM
[39] = target: Dual specificity testis-specific protein kinase 1 (Homo sapiens) (UniProt Q15569); settings: Compound concentration 1000.0 nM
[40] = target: TRAF2 and NCK-interacting protein kinase (Homo sapiens) (UniProt Q9UKE5); settings: Compound concentration 1000.0 nM
[41] = target: Tyrosine-protein kinase receptor TYRO3 (Homo sapiens) (UniProt Q06418); settings: Compound concentration 1000.0 nM
[42] = target: Serine/threonine-protein kinase WNK4 (Homo sapiens) (UniProt Q96J92); settings: Compound concentration 1000.0 nM
[43] = target: Alpha-2C adrenergic receptor (Homo sapiens) (UniProt P18825); settings: Compound concentration 10.0 uM
[44] = target: Beta-2 adrenergic receptor (Homo sapiens) (UniProt P07550); settings: Compound concentration 10.0 uM
[45] = target: Muscarinic acetylcholine receptor M3 (Homo sapiens) (UniProt P20309); settings: Compound concentration 10.0 uM

Rho-associated protein kinase 2 (Homo sapiens), sequence (O75116 whole entry, looked up): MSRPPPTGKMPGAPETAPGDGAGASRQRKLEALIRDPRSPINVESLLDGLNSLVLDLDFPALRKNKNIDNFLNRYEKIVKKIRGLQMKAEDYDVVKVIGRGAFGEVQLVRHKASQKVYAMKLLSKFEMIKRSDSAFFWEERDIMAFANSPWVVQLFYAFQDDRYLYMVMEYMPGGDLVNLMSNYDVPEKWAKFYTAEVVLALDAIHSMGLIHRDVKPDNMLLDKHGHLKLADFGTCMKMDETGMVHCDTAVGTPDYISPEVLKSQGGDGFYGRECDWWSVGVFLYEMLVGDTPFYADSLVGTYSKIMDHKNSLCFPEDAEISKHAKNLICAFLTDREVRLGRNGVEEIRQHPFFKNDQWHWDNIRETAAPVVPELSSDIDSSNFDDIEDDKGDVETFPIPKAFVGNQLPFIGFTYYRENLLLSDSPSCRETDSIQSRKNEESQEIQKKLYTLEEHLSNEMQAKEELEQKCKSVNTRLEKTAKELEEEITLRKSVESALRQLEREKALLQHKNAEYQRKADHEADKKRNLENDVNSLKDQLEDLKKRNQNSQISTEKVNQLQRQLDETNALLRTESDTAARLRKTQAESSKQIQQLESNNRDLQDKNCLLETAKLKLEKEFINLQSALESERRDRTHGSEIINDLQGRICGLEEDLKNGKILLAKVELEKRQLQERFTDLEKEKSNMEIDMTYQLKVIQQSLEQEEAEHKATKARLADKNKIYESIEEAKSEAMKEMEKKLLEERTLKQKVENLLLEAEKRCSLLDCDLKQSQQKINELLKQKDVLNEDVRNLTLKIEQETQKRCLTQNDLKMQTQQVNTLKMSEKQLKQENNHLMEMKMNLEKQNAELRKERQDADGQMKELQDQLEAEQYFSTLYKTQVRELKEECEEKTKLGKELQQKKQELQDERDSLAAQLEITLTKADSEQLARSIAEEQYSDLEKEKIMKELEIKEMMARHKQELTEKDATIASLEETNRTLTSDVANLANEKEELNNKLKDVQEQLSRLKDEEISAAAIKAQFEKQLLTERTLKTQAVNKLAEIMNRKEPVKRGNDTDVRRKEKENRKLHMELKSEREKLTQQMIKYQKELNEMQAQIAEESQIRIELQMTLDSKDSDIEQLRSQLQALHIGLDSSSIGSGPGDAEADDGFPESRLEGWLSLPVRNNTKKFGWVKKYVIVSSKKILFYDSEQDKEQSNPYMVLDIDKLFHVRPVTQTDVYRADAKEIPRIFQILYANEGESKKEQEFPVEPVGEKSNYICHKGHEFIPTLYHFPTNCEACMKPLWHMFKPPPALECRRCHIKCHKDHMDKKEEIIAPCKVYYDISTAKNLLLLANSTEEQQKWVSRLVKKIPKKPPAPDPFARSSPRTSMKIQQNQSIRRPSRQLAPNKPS
Ribosomal protein S6 kinase alpha-5 (Homo sapiens), sequence (O75582 whole entry, looked up): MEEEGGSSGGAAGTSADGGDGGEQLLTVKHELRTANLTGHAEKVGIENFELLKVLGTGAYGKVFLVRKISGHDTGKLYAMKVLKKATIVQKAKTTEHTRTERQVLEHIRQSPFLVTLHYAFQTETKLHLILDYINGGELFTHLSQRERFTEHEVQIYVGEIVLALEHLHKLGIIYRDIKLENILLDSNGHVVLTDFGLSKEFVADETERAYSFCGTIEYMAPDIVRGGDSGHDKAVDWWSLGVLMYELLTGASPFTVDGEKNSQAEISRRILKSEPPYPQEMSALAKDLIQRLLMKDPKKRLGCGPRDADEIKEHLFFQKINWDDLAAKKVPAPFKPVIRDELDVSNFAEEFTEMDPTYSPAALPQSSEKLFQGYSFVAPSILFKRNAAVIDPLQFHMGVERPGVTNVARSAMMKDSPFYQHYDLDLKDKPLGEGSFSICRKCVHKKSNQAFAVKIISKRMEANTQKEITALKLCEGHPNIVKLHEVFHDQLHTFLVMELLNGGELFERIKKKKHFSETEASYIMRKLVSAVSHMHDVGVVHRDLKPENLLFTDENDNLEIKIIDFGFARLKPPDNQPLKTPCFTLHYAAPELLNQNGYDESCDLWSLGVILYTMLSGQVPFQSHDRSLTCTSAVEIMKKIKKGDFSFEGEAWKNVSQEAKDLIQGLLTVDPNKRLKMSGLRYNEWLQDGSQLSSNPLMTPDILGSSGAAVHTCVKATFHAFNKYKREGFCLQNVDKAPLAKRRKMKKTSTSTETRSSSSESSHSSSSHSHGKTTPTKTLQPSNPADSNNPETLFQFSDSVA
Beta-2 adrenergic receptor (Homo sapiens), sequence (P07550 whole entry, looked up): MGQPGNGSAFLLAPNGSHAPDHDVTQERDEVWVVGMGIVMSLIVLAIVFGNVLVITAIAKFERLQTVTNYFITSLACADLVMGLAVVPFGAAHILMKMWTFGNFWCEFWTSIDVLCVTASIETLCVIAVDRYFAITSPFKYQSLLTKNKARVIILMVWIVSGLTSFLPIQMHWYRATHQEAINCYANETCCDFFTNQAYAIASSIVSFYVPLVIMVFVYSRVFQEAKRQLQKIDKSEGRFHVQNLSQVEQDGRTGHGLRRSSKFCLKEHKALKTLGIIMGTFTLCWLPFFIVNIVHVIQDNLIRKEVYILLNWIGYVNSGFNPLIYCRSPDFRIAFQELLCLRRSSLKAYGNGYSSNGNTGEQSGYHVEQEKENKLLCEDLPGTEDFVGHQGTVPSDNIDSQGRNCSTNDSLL
Ephrin type-A receptor 6 (Homo sapiens), sequence (Q9UF33 whole entry): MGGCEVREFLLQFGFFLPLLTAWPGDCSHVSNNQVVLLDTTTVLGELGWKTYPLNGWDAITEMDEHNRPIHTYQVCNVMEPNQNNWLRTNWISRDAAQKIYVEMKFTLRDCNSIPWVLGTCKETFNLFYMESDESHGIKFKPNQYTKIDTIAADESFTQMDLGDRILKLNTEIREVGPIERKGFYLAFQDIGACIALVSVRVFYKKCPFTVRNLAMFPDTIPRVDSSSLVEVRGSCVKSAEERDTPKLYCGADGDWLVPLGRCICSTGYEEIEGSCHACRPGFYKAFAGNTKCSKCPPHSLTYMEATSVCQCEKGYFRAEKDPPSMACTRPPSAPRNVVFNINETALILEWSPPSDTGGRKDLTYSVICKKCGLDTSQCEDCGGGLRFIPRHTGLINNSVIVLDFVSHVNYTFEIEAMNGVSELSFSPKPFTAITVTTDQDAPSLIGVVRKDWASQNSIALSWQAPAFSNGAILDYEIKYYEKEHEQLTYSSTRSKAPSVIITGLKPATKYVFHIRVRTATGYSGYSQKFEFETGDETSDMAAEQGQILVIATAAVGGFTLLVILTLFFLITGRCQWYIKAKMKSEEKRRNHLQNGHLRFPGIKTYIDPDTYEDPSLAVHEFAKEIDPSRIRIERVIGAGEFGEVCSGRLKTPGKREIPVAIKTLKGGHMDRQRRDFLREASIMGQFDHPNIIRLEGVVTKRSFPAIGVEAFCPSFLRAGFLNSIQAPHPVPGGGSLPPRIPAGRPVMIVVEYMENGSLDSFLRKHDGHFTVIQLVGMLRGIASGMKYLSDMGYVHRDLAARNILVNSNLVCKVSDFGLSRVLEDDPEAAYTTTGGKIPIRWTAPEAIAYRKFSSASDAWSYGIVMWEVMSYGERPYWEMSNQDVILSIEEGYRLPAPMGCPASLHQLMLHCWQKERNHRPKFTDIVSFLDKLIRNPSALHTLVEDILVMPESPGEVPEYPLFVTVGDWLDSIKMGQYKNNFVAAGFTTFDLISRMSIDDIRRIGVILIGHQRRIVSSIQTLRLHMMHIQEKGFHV
Ribosomal protein S6 kinase alpha-3 (Homo sapiens), sequence (P51812 whole entry): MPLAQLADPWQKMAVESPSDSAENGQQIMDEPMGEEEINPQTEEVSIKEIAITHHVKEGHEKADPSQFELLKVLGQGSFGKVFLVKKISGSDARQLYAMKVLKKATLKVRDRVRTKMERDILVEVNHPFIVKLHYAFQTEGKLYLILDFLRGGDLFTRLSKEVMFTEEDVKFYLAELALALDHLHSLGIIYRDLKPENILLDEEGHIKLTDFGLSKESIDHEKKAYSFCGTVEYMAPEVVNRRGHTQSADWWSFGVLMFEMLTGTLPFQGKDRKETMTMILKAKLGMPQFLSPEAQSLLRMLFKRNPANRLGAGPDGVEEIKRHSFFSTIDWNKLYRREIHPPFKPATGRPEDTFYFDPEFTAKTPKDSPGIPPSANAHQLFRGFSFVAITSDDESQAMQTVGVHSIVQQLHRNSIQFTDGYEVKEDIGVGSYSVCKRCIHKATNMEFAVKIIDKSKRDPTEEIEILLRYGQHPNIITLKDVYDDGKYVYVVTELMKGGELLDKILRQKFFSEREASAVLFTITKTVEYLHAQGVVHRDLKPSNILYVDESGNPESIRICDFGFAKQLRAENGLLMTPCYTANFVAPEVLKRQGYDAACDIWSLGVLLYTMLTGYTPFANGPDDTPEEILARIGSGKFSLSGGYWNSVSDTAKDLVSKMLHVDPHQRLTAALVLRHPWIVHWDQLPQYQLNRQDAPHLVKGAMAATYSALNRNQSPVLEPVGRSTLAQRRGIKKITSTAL
Tyrosine-protein kinase BTK (Homo sapiens), sequence (Q06187 whole entry): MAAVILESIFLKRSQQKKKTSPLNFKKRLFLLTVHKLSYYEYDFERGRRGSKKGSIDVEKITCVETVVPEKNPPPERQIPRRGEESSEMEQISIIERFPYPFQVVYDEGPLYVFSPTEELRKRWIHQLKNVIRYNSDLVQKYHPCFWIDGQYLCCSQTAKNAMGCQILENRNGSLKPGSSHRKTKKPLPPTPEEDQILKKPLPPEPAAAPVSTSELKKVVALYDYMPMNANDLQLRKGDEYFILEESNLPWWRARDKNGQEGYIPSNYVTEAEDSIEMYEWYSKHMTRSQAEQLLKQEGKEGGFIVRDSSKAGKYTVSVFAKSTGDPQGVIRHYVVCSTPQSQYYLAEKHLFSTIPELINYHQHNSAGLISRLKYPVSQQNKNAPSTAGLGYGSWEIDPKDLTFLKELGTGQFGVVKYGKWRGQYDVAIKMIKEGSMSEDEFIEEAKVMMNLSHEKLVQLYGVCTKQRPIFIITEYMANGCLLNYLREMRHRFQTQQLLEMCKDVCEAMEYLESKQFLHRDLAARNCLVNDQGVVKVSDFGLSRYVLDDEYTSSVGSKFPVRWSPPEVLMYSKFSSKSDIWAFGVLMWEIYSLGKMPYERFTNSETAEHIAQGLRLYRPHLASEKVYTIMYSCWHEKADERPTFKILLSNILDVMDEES

## CC(=O)Nc1c(C(C)=O)c(=O)n(C)c2nc(-c3ccc(Cl)cc3Cl)c(-c3ccc(Cl)cc3)cc12 [NAPHTHYRIDINONE]
[1]
  residual activity: 100%
[2]
  residual activity: 96%
[3]
  residual activity: 100%
[4]
  residual activity: 85%
[5]
  residual activity: 88%
[6]
  residual activity: 100%
[7]
  residual activity: 100%
[8]
  residual activity: 100%
[9]
  residual activity: 100%
[10]
  residual activity: 100%
[11]
  residual activity: 100%
[12]
  residual activity: 100%
[13]
  residual activity: 100%
[14]
  residual activity: 100%
[15]
  residual activity: 100%
[16]
  residual activity: 100%
[17]
  residual activity: 100%
[18]
  residual activity: 100%
[19]
  residual activity: 100%
[20]
  residual activity: 100%
[21]
  residual activity: 100%
[22]
  residual activity: 80%
[23]
  residual activity: 100%
[24]
  residual activity: 100%
[25]
  residual activity: 100%
[26]
  residual activity: 100%
[27]
  residual activity: 100%
[28]
  residual activity: 100%
[29]
  residual activity: 100%
[30]
  residual activity: 100%
[31]
  residual activity: 100%
[32]
  residual activity: 100%
[33]
  residual activity: 58%
[34]
  residual activity: 100%
[35]
  residual activity: 100%
[36]
  residual activity: 100%
[37]
  residual activity: 100%
[38]
  residual activity: 90%
[39]
  residual activity: 100%
[40]
  residual activity: 100%
[41]
  residual activity: 68%
[42]
  residual activity: 100%
[43]
  inhibition: 3.44%
[44]
  inhibition: 12.6%
[45]
  inhibition: -6.59%

## CC(=O)c1c(NS(C)(=O)=O)c2cc(-c3ccc(Cl)cc3)c(-c3ccc(Cl)cc3Cl)nc2n(C)c1=O [MRL-CB1-NC]
[1]
  residual activity: 100%
[2]
  residual activity: 94%
[3]
  residual activity: 95%
[4]
  residual activity: 99%
[5]
  residual activity: 84%
[6]
  residual activity: 96%
[7]
  residual activity: 100%
[8]
  residual activity: 100%
[9]
  residual activity: 100%
[10]
  residual activity: 100%
[11]
  residual activity: 77%
[12]
  residual activity: 100%
[13]
  residual activity: 91%
[14]
  residual activity: 64%
[15]
  residual activity: 100%
[16]
  residual activity: 100%
[17]
  residual activity: 93%
[18]
  residual activity: 85%
[19]
  residual activity: 100%
[20]
  residual activity: 75%
[21]
  residual activity: 87%
[22]
  residual activity: 73%
[23]
  residual activity: 76%
[24]
  residual activity: 97%
[25]
  residual activity: 99%
[26]
  residual activity: 100%
[27]
  residual activity: 94%
[28]
  residual activity: 100%
[29]
  residual activity: 100%
[30]
  residual activity: 72%
[31]
  residual activity: 100%
[32]
  residual activity: 100%
[33]
  residual activity: 64%
[34]
  residual activity: 75%
[35]
  residual activity: 97%
[36]
  residual activity: 100%
[37]
  residual activity: 100%
[38]
  residual activity: 75%
[39]
  residual activity: 100%
[40]
  residual activity: 93%
[41]
  residual activity: 64%
[42]
  residual activity: 96%
[43]
  inhibition: 78.9%
[44]
  inhibition: 5.51%
[45]
  inhibition: 4.36%

From ChEMBL document CHEMBL4507287, “Data for DCP probe MRL-650” (2021)
